Earlier results as cited in US20020015745A1, “Process for enhancing immune response in canines using a dietary composition including garlic” (priority 2000, published 2002).

Test system: human prostate carcinoma LNCaP cells
Settings: in culture

## C=CCSSC[C@H](N)C(=O)O [S-allylmercaptocysteine]
  growth of human prostate carcinoma LNCaP cells: reduce the growth
